Measured values published in the CheMixHub viscosity set.
± gives the uncertainty stated by the source.

Assay: xn = mol fraction of the nth substance listed

COCCOCCOCCOC + CCCCCCO
101 kPa
Conditions | viscosity [mPa·s]
293.15 K, x1 = 0.04492 | 4.503 ± 0.048
293.15 K, x1 = 0.09537 | 3.827 ± 0.041
293.15 K, x1 = 0.1973 | 3.104 ± 0.033
293.15 K, x1 = 0.2976 | 2.686 ± 0.029
293.15 K, x1 = 0.4067 | 2.427 ± 0.026
293.15 K, x1 = 0.5095 | 2.269 ± 0.024
293.15 K, x1 = 0.6012 | 2.199 ± 0.024
293.15 K, x1 = 0.6895 | 2.144 ± 0.023
293.15 K, x1 = 0.7928 | 2.134 ± 0.023
293.15 K, x1 = 0.8972 | 2.135 ± 0.023
293.15 K, x1 = 0.9607 | 2.158 ± 0.023
303.15 K, x1 = 0.04662 | 3.285 ± 0.035
303.15 K, x1 = 0.09419 | 2.854 ± 0.031
303.15 K, x1 = 0.2001 | 2.327 ± 0.025
303.15 K, x1 = 0.2995 | 2.056 ± 0.022
303.15 K, x1 = 0.4075 | 1.869 ± 0.02
303.15 K, x1 = 0.5134 | 1.747 ± 0.019
303.15 K, x1 = 0.5831 | 1.711 ± 0.019
303.15 K, x1 = 0.6929 | 1.697 ± 0.018
303.15 K, x1 = 0.7889 | 1.712 ± 0.019
303.15 K, x1 = 0.9161 | 1.735 ± 0.019
303.15 K, x1 = 0.9401 | 1.753 ± 0.019
313.15 K, x1 = 0.04436 | 2.565 ± 0.028
313.15 K, x1 = 0.09283 | 2.292 ± 0.025
313.15 K, x1 = 0.2014 | 1.894 ± 0.02
313.15 K, x1 = 0.2982 | 1.701 ± 0.018
313.15 K, x1 = 0.41 | 1.56 ± 0.017
313.15 K, x1 = 0.5102 | 1.491 ± 0.016
313.15 K, x1 = 0.601 | 1.454 ± 0.016
313.15 K, x1 = 0.6974 | 1.435 ± 0.016
313.15 K, x1 = 0.8008 | 1.435 ± 0.016
313.15 K, x1 = 0.8996 | 1.453 ± 0.016
313.15 K, x1 = 0.9626 | 1.462 ± 0.016

CC(=O)[O-].CC[N+]1(C)CCOCC1 + O
viscosity [mPa·s], 100 kPa
Conditions | x1 = 0.0567 | x1 = 0.0886 | x1 = 0.1794 | x1 = 0.253 | x1 = 0.3334 | x1 = 0.4341 | x1 = 0.4928 | x1 = 0.5718 | x1 = 0.6609 | x1 = 0.7155
298.15 K | 3.5 ± 0.36 | 7.01 ± 0.73 | 36.6 ± 3.7 | 89.4 ± 9.2 | 203 ± 23 | 541 ± 68 | 671 ± 87 | 1472 ± 210 | – | –
303.15 K | 3.03 ± 0.3 | 5.93 ± 0.6 | 31.9 ± 3.2 | 66 ± 6.7 | 143 ± 15 | 347 ± 41 | 503 ± 62 | 1093 ± 150 | – | –
308.15 K | 2.65 ± 0.27 | 5.05 ± 0.51 | 27 ± 2.7 | 50 ± 5 | 104 ± 11 | 228 ± 26 | 383 ± 46 | 795 ± 100 | 1969 ± 300 | –
313.15 K | 2.34 ± 0.24 | 4.33 ± 0.44 | 22.5 ± 2.3 | 38.7 ± 3.9 | 78.1 ± 7.9 | 150 ± 16 | 278 ± 32 | 566 ± 71 | 1355 ± 200 | 2266 ± 350
318.15 K | 2.08 ± 0.21 | 3.73 ± 0.38 | 18.2 ± 1.8 | 30.7 ± 3.1 | 59.8 ± 6 | 123 ± 13 | 198 ± 22 | 396 ± 47 | 908 ± 120 | 1518 ± 220
323.15 K | 1.86 ± 0.19 | 3.25 ± 0.33 | 15 ± 1.5 | 24.8 ± 2.5 | 46.8 ± 4.7 | 92.9 ± 9.5 | 144 ± 15 | 276 ± 32 | 599 ± 76 | 971 ± 130

Nc1ccccc1 + CCCCCCCCCCO
viscosity [mPa·s], 100 kPa
Conditions | x1 = 0.0718 | x1 = 0.1593 | x1 = 0.2335 | x1 = 0.3471 | x1 = 0.4452 | x1 = 0.5618 | x1 = 0.6428 | x1 = 0.7439 | x1 = 0.8518 | x1 = 0.9439
293.15 K | 12.8 ± 1 | 11.23 ± 0.9 | 10.05 ± 0.81 | 8.62 ± 0.69 | 7.44 ± 0.6 | 6.23 ± 0.5 | 5.57 ± 0.45 | 4.95 ± 0.4 | 4.47 ± 0.36 | 4.31 ± 0.35
303.15 K | 8.75 ± 0.7 | 7.6 ± 0.61 | 6.85 ± 0.55 | 5.92 ± 0.47 | 5.25 ± 0.42 | 4.38 ± 0.35 | 3.94 ± 0.32 | 3.56 ± 0.29 | 3.23 ± 0.26 | 3.12 ± 0.25
313.15 K | 6.16 ± 0.49 | 5.4 ± 0.43 | 4.9 ± 0.39 | 4.28 ± 0.34 | 3.84 ± 0.31 | 3.3 ± 0.3 | 2.97 ± 0.24 | 2.7 ± 0.22 | 2.5 ± 0.2 | 2.44 ± 0.2
323.15 K | 4.47 ± 0.36 | 4 ± 0.32 | 3.65 ± 0.29 | 3.21 ± 0.26 | 2.89 ± 0.23 | 2.51 ± 0.2 | 2.28 ± 0.18 | 2.1 ± 0.17 | 1.95 ± 0.16 | 1.91 ± 0.15
